# In patent US9078436B2 (priority 2012, dated 2015):
# Where two headings read alike, the source gives them in different places.
# Assays:
# [1] = pH of 0.1M solution of the acids tested (Table 1); assay type: physicochemical
# [2] = Conversion of PNMDC to MITC as a function of pH; assay type: physicochemical; details: FIGS. 1 and 2; over three hours and over five minutes
# Text: In the decomposition of monoalkyldithiocarbamate salt, the rate at which alkyl isothiocyanate is formed can be determined by the pH of the solution. […] At lower pH levels, a competing reaction, particularly hydrolysis to form carbon disulfide and methylammonium ion, can occur, thus lowering the yield of MITC.
# While good conversion can occur over a range of pH values, the results shown in FIGS. 1 and 2 indicate an optimum conversion occurring at about pH 3 (e.g., 2.5-3.5).
# An HPLC method was developed to allow the reaction mixtures to be analyzed in real time. This procedure stopped the decomposition of PNMDC by converting any unreacted dithiocarbamate ion to a stable nickel salt:
# This compound was then detected by its UV absorption at 365 nm. MITC is unaffected by the presence of the Ni^++ ion and is detected by its UV absorption at 230 nm.
Structure (SMILES),pH of 0.1M Solution [1],pH of 0.1M Solution ([1]; listed as Citric Acid (2)),pH of optimum conversion of PNMDC to MITC [2]
CC(=O)O [Acetic Acid],2.88,–,–
O=C(O)c1ccccc1 [Benzoic Acid],2.61,–,–
"O=C(O)CC(O)(CC(=O)O)C(=O)O [Citric Acid (1), Citric Acid]",2.06,2.88,–
O=CO [Formic Acid],2.39,–,–
"CNC(=S)[S-].[K+] [PNMDC, potassium N-methyldithiocarbamate]",–,–,~3
